From patent publication US10251395B2, “Substituted furano-/thienocycloalkylamino-2-pyrimidine derivatives and use thereof for controlling undesired plant growth” (Bayer CropScience Aktiengesellschaft, priority 2015, dated 2019)

What was measured:
Assay type in all cases: in vivo
Abutilon theophrasti [1] = assay: Pre-emergence herbicidal effect; settings: scored visually after 3 weeks
How it was run: (§1)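 Scoring: visual, 3 weeks, % vs untreated (100% = died). Treatment: WP or EC in water, 0.2% wetting agent, sprayed on covering soil after sowing in sandy loam.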

Alopecurus myosuroides [2] = assay: Pre-emergence herbicidal effect; settings: scored visually after 3 weeks
How it was run: as §1

Amaranthus retroflexus [3] = assay: Pre-emergence herbicidal effect; settings: scored visually after 3 weeks
How it was run: as §1

Avena fatua [4] = assay: Pre-emergence herbicidal effect; settings: scored visually after 3 weeks
How it was run: as §1

Cyperus esculentus = assay: Pre-emergence herbicidal effect; settings: scored visually after 3 weeks
How it was run: as §1

Echinochloa crus-galli [5] = assay: Pre-emergence herbicidal effect; settings: scored visually after 3 weeks
How it was run: as §1

Ipomoea purpurea [6] = assay: Pre-emergence herbicidal effect; settings: scored visually after 3 weeks
How it was run: as §1

Matricaria inodora [7] = assay: Pre-emergence herbicidal effect; settings: scored visually after 3 weeks
How it was run: as §1

Polygonum convolvulus [8] = assay: Pre-emergence herbicidal effect; settings: scored visually after 3 weeks
How it was run: as §1

Setaria viridis [9] = assay: Pre-emergence herbicidal effect; settings: scored visually after 3 weeks
How it was run: as §1

Viola tricolor [10] = assay: Pre-emergence herbicidal effect; settings: scored visually after 3 weeks
How it was run: as §1

Abutilon theophrasti [11] = assay: Post-emergence herbicidal effect; settings: assessed visually after about 3 weeks vs untreated controls
How it was run: (§2)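 Seedlings at the one-leaf stage, about 2 to 3 weeks old, are sprayed on their foliage with compound suspended or emulsified in water containing 0.2% wetting agent. After roughly 3 weeks in the greenhouse, injury is estimated visually on a 0 to 100% scale.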

Alopecurus myosuroides [12] = assay: Post-emergence herbicidal effect; settings: 320 g/ha, assessed visually after about 3 weeks vs untreated controls
How it was run: as §2

Amaranthus retroflexus [13] = assay: Post-emergence herbicidal effect; settings: assessed visually after about 3 weeks vs untreated controls
How it was run: as §2

Echinochloa crus-galli [14] = assay: Post-emergence herbicidal effect; settings: assessed visually after about 3 weeks vs untreated controls
How it was run: as §2

Ipomoea purpurea [15] = assay: Post-emergence herbicidal effect; settings: assessed visually after about 3 weeks vs untreated controls
How it was run: as §2

Matricaria inodora [16] = assay: Post-emergence herbicidal effect; settings: assessed visually after about 3 weeks vs untreated controls
How it was run: as §2

Polygonum convolvulus [17] = assay: Post-emergence herbicidal effect; settings: assessed visually after about 3 weeks vs untreated controls
How it was run: as §2

Setaria viridis [18] = assay: Post-emergence herbicidal effect; settings: assessed visually after about 3 weeks vs untreated controls
How it was run: as §2

Stellaria media [19] = assay: Post-emergence herbicidal effect; settings: assessed visually after about 3 weeks vs untreated controls
How it was run: as §2

Viola tricolor [20] = assay: Post-emergence herbicidal effect; settings: assessed visually after about 3 weeks vs untreated controls
How it was run: as §2

Lolium multiflorum = assay: Pre-emergence herbicidal effect; settings: scored visually after 3 weeks
How it was run: as §1

Stellaria media [21] = assay: Pre-emergence herbicidal effect; settings: scored visually after 3 weeks
How it was run: as §1

Veronica persica [22] = assay: Pre-emergence herbicidal effect; settings: scored visually after 3 weeks
How it was run: as §1

Avena fatua [23] = assay: Post-emergence herbicidal effect; settings: 320 g/ha, assessed visually after about 3 weeks vs untreated controls
How it was run: as §2

Veronica persica [24] = assay: Post-emergence herbicidal effect; settings: assessed visually after about 3 weeks vs untreated controls
How it was run: as §2

Cc1cc2c(s1)CCCC2Nc1nc(N)c(Br)c(C(F)F)n1 (racemic) [compound 284]
ABUTH pre-emergence efficacy (herbicidal activity) (Abutilon theophrasti [1]; Dosage 80 g/ha): 20% | ABUTH pre-emergence efficacy (herbicidal activity) (Abutilon theophrasti [1]; Dosage 320 g/ha): 80% | ALOMY pre-emergence efficacy (herbicidal activity) (Alopecurus myosuroides [2]; Dosage 80 g/ha): 70% | ALOMY pre-emergence efficacy (herbicidal activity) (Alopecurus myosuroides [2]; Dosage 320 g/ha): 80% | AMARE pre-emergence efficacy (herbicidal activity) (Amaranthus retroflexus [3]; Dosage 80 g/ha): 100% | AMARE pre-emergence efficacy (herbicidal activity) (Amaranthus retroflexus [3]; Dosage 320 g/ha): 100% | AVEFA pre-emergence efficacy (herbicidal activity) (Avena fatua [4]; Dosage 80 g/ha): 50% | AVEFA pre-emergence efficacy (herbicidal activity) (Avena fatua [4]; Dosage 320 g/ha): 70% | CYPES pre-emergence efficacy (herbicidal activity) (Cyperus esculentus; Dosage 80 g/ha): 90% | CYPES pre-emergence efficacy (herbicidal activity) (Cyperus esculentus; Dosage 320 g/ha): 100% | ECHCG pre-emergence efficacy (herbicidal activity) (Echinochloa crus-galli [5]; Dosage 80 g/ha): 80% | ECHCG pre-emergence efficacy (herbicidal activity) (Echinochloa crus-galli [5]; Dosage 320 g/ha): 100% | PHBPU pre-emergence efficacy (herbicidal activity) (Ipomoea purpurea [6]; Dosage 80 g/ha): 50% | PHBPU pre-emergence efficacy (herbicidal activity) (Ipomoea purpurea [6]; Dosage 320 g/ha): 50% | MATIN pre-emergence efficacy (herbicidal activity) (Matricaria inodora [7]; Dosage 80 g/ha): 100% | MATIN pre-emergence efficacy (herbicidal activity) (Matricaria inodora [7]; Dosage 320 g/ha): 100% | POLCO pre-emergence efficacy (herbicidal activity) (Polygonum convolvulus [8]; Dosage 80 g/ha): 90% | POLCO pre-emergence efficacy (herbicidal activity) (Polygonum convolvulus [8]; Dosage 320 g/ha): 100% | SETVI pre-emergence efficacy (herbicidal activity) (Setaria viridis [9]; Dosage 80 g/ha): 100% | SETVI pre-emergence efficacy (herbicidal activity) (Setaria viridis [9]; Dosage 320 g/ha): 100% | VIOTR pre-emergence efficacy (herbicidal activity) (Viola tricolor [10]; Dosage 80 g/ha): 100% | VIOTR pre-emergence efficacy (herbicidal activity) (Viola tricolor [10]; Dosage 320 g/ha): 100% | post-emergence efficacy ABUTH (Abutilon theophrasti [11]; 80 g/ha): 90% | post-emergence efficacy ABUTH (Abutilon theophrasti [11]; 320 g/ha): 90% | post-emergence efficacy ALOMY (Alopecurus myosuroides [12]): 100% | post-emergence efficacy AMARE (Amaranthus retroflexus [13]; 80 g/ha): 80% | post-emergence efficacy AMARE (Amaranthus retroflexus [13]; 320 g/ha): 80% | post-emergence efficacy ECHCG (Echinochloa crus-galli [14]; 320 g/ha): 80% | post-emergence efficacy PHBPU (Ipomoea purpurea [15]; 80 g/ha): 90% | post-emergence efficacy PHBPU (Ipomoea purpurea [15]; 320 g/ha): 100% | post-emergence efficacy MATIN (Matricaria inodora [16]; 320 g/ha): 80% | post-emergence efficacy POLCO (Polygonum convolvulus [17]; 320 g/ha): 100% | post-emergence efficacy SETVI (Setaria viridis [18]; 80 g/ha): 90% | post-emergence efficacy SETVI (Setaria viridis [18]; 320 g/ha): 100% | post-emergence efficacy STEME (Stellaria media [19]; 80 g/ha): 100% | post-emergence efficacy STEME (Stellaria media [19]; 320 g/ha): 100% | post-emergence efficacy VIOTR (Viola tricolor [20]; 80 g/ha): 60% | post-emergence efficacy VIOTR (Viola tricolor [20]; 320 g/ha): 90%

Cc1cc2c(s1)CCCC2Nc1ncc(C(F)(F)F)c(N)n1 (racemic) [compound 11]
ABUTH pre-emergence efficacy (herbicidal activity) (Abutilon theophrasti [1]; Dosage 80 g/ha): 100% | ALOMY pre-emergence efficacy (herbicidal activity) (Alopecurus myosuroides [2]; Dosage 80 g/ha): 90% | ALOMY pre-emergence efficacy (herbicidal activity) (Alopecurus myosuroides [2]; Dosage 320 g/ha): 100% | AMARE pre-emergence efficacy (herbicidal activity) (Amaranthus retroflexus [3]; Dosage 80 g/ha): 100% | AMARE pre-emergence efficacy (herbicidal activity) (Amaranthus retroflexus [3]; Dosage 320 g/ha): 100% | AVEFA pre-emergence efficacy (herbicidal activity) (Avena fatua [4]; Dosage 80 g/ha): 60% | AVEFA pre-emergence efficacy (herbicidal activity) (Avena fatua [4]; Dosage 320 g/ha): 90% | ECHCG pre-emergence efficacy (herbicidal activity) (Echinochloa crus-galli [5]; Dosage 80 g/ha): 100% | ECHCG pre-emergence efficacy (herbicidal activity) (Echinochloa crus-galli [5]; Dosage 320 g/ha): 100% | LOLMU pre-emergence efficacy (herbicidal activity) (Lolium multiflorum; Dosage 80 g/ha): 100% | LOLMU pre-emergence efficacy (herbicidal activity) (Lolium multiflorum; Dosage 320 g/ha): 100% | MATIN pre-emergence efficacy (herbicidal activity) (Matricaria inodora [7]; Dosage 80 g/ha): 100% | MATIN pre-emergence efficacy (herbicidal activity) (Matricaria inodora [7]; Dosage 320 g/ha): 100% | POLCO pre-emergence efficacy (herbicidal activity) (Polygonum convolvulus [8]; Dosage 80 g/ha): 100% | POLCO pre-emergence efficacy (herbicidal activity) (Polygonum convolvulus [8]; Dosage 320 g/ha): 100% | SETVI pre-emergence efficacy (herbicidal activity) (Setaria viridis [9]; Dosage 80 g/ha): 100% | SETVI pre-emergence efficacy (herbicidal activity) (Setaria viridis [9]; Dosage 320 g/ha): 100% | STEME pre-emergence efficacy (herbicidal activity) (Stellaria media [21]; Dosage 80 g/ha): 100% | STEME pre-emergence efficacy (herbicidal activity) (Stellaria media [21]; Dosage 320 g/ha): 100% | VERPE pre-emergence efficacy (herbicidal activity) (Veronica persica [22]; Dosage 80 g/ha): 100% | VERPE pre-emergence efficacy (herbicidal activity) (Veronica persica [22]; Dosage 320 g/ha): 100% | VIOTR pre-emergence efficacy (herbicidal activity) (Viola tricolor [10]; Dosage 80 g/ha): 100% | VIOTR pre-emergence efficacy (herbicidal activity) (Viola tricolor [10]; Dosage 320 g/ha): 100% | post-emergence efficacy ABUTH (Abutilon theophrasti [11]; 80 g/ha): 100% | post-emergence efficacy ABUTH (Abutilon theophrasti [11]; 320 g/ha): 100% | post-emergence efficacy ALOMY (Alopecurus myosuroides [12]): 90% | post-emergence efficacy AMARE (Amaranthus retroflexus [13]; 80 g/ha): 90% | post-emergence efficacy AMARE (Amaranthus retroflexus [13]; 320 g/ha): 90% | post-emergence efficacy AVEFA (Avena fatua [23]): 80% | post-emergence efficacy ECHCG (Echinochloa crus-galli [14]; 80 g/ha): 100% | post-emergence efficacy ECHCG (Echinochloa crus-galli [14]; 320 g/ha): 100% | post-emergence efficacy PHBPU (Ipomoea purpurea [15]; 80 g/ha): 90% | post-emergence efficacy PHBPU (Ipomoea purpurea [15]; 320 g/ha): 90% | post-emergence efficacy MATIN (Matricaria inodora [16]; 80 g/ha): 90% | post-emergence efficacy MATIN (Matricaria inodora [16]; 320 g/ha): 100% | post-emergence efficacy POLCO (Polygonum convolvulus [17]; 80 g/ha): 90% | post-emergence efficacy POLCO (Polygonum convolvulus [17]; 320 g/ha): 90% | post-emergence efficacy SETVI (Setaria viridis [18]; 80 g/ha): 90% | post-emergence efficacy SETVI (Setaria viridis [18]; 320 g/ha): 90% | post-emergence efficacy STEME (Stellaria media [19]; 80 g/ha): 90% | post-emergence efficacy STEME (Stellaria media [19]; 320 g/ha): 100% | post-emergence efficacy VERPE (Veronica persica [24]; 80 g/ha): 80% | post-emergence efficacy VERPE (Veronica persica [24]; 320 g/ha): 90% | post-emergence efficacy VIOTR (Viola tricolor [20]; 80 g/ha): 100% | post-emergence efficacy VIOTR (Viola tricolor [20]; 320 g/ha): 100%
